Legend:
velvetleaf = test: Test C postemergence; assay type: in vivo, Abutilon theophrasti; conditions: Abutilon theophrasti, post-emergence
Method in brief: (§1)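 Seeds are planted in blended loam soil and sand and treated preemergence, while seedlings in a peat moss/vermiculite medium receive postemergence sprays at 2 to 18 cm height. All plants stay in the greenhouse for 13 to 15 days before visual comparison with controls on a 0–100 scale.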

wheat = test: Test A preemergence; assay type: in vivo, Triticum aestivum; conditions: Triticum aestivum, pre-emergence, 240 h, read-out: Wheat plant response rating
Method in brief: (§2)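 Compounds in non-phytotoxic solvent with surfactant applied as soil spray preemergence, or postemergence to plants 2-10 cm at one- to two-leaf stage, in loam/sand. After approximately 10 days in greenhouse, injury rated visually versus untreated controls, 0 (no effect) to 100 (complete control).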

corn = test: Test A preemergence; assay type: in vivo, Zea mays; conditions: Zea mays, pre-emergence, 240 h, read-out: Corn plant response rating
Method in brief: as §2

ragweed = test: Test C postemergence; assay type: in vivo, Ambrosia elatior; conditions: Ambrosia artemisiifolia, post-emergence
Method in brief: as §1

yellow nutsedge = test: Test C postemergence; assay type: in vivo, Cyperus esculentus; conditions: Cyperus, post-emergence
Method in brief: as §1

lambsquarters = test: Test C postemergence; assay type: in vivo, Chenopodium album; conditions: Chenopodium album, post-emergence
Method in brief: as §1

morningglory = test: Test C postemergence; assay type: in vivo, Ipomoea coccinea; conditions: Ipomoea, post-emergence
Method in brief: as §1

sedge, umbrella = test: Test B flooded paddy test; assay type: in vivo, Cyperus difformis; conditions: Cyperus difformis, Flood, 250 g ai/ha; 0 to 100 scale where 0 is no effect and 100 is complete control; read-out: Plant response rating, Sedge, Umbrella
Method in brief: (§3)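 Seedlings are raised to two leaves, flooded to a depth of 3 cm and dosed by adding the compound to the floodwater. Water level is kept constant, and plants are scored visually versus controls 13–15 days later (0 = no effect, 100 = complete control).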

galium = test: Test C postemergence; assay type: in vivo, Galium aparine; conditions: Galium, post-emergence
Method in brief: as §1

chickweed = test: Test C postemergence; assay type: in vivo, Stellaria media; conditions: Stellaria media, post-emergence
Method in brief: as §1

barnyardgrass [1] = test: Test A preemergence; assay type: in vivo, Echinochloa crus-galli; conditions: Echinochloa crus-galli, pre-emergence, 240 h, read-out: Barnyardgrass plant response rating
Method in brief: as §2

Heteranthera limosa = test: Test B flooded paddy test; assay type: in vivo; conditions: Heteranthera limosa, Flood, 250 g ai/ha; 0 to 100 scale where 0 is no effect and 100 is complete control; read-out: Plant response rating, Ducksalad
Method in brief: as §3

wheat, winter = test: Test C postemergence; assay type: in vivo, Triticum aestivum; conditions: Triticum aestivum, post-emergence
Method in brief: as §1

giant foxtail = test: Test A preemergence; assay type: in vivo, Setaria faberii; conditions: Setaria faberi, pre-emergence, 240 h, read-out: Foxtail, Giant plant response rating
Method in brief: as §2

barnyardgrass [2] = test: Test B flooded paddy test; assay type: in vivo, Echinochloa crus-galli; conditions: Echinochloa crus-galli; Flood, 250 g ai/ha; 0 to 100 scale where 0 is no effect and 100 is complete control; read-out: Plant response rating, Barnyardgrass
Method in brief: as §3

rice = test: Test B flooded paddy test; assay type: in vivo, Oryza sativa; conditions: Oryza sativa; Flood, 250 g ai/ha; 0 to 100 scale where 0 is no effect and 100 is complete control; read-out: Plant response rating, Rice
Method in brief: as §3

[3] = 125 g ai/ha, 0 to 100 scale where 0 is no effect and 100 is complete control
[4] = 500 g ai/ha, 0 to 100 scale, 0 no effect, 100 complete control, approx. 10 days

`Clc1cnn(-c2ccccc2Oc2ncc(Br)cn2)c1` [Compound 5, 5-bromo-2-[2-(4-chloro-1H-pyrazol-1-yl)phenoxy]pyrimidine] gave a pest or weed control at 125 g/ha (velvetleaf; 125 g ai/ha, postemergence, read-out: Plant response rating (0 to 100), Velvetleaf) of 80%, a pest or weed control at 250 g/ha (velvetleaf; 250 g ai/ha, postemergence, read-out: Plant response rating (0 to 100), Velvetleaf) of 98% and a pest or weed control at 31 g/ha (velvetleaf; Postemergence, 31 g ai/ha, scale 0 to 100 (0 no effect, 100 complete control), 13 to 15 days, read-out: Plant response rating, Velvetleaf) of 45%. For the same compound, the pest or weed control at 62 g/ha (velvetleaf; Postemergence, 62 g ai/ha, scale 0 to 100 (0 no effect, 100 complete control), read-out: Plant response rating, Velvetleaf) was 55%, the plant injury at 125 g/ha (wheat; [3]) was 0% and the plant injury at 500 g/ha (wheat; [4]) was 20%. It also gave a plant injury at 125 g/ha (corn; [3]) of 0%, a plant injury at 500 g/ha (corn; [4]) of 0% and a pest or weed control at 125 g/ha (ragweed; 125 g ai/ha, postemergence, read-out: Plant response rating (0 to 100), Ragweed) of 55%. It also gave a pest or weed control at 250 g/ha (ragweed; 250 g ai/ha, postemergence, read-out: Plant response rating (0 to 100), Ragweed) of 85%, a pest or weed control at 31 g/ha (ragweed; Postemergence, 31 g ai/ha, scale 0 to 100 (0 no effect, 100 complete control), 13 to 15 days, read-out: Plant response rating, Ragweed) of 15% and a pest or weed control at 62 g/ha (ragweed; Postemergence, 62 g ai/ha, scale 0 to 100 (0 no effect, 100 complete control), read-out: Plant response rating, Ragweed) of 45%. It also gave a pest or weed control at 125 g/ha (yellow nutsedge; 125 g ai/ha, postemergence, read-out: Plant response rating (0 to 100), Nutsedge, Yellow) of 15%, a pest or weed control at 250 g/ha (yellow nutsedge; 250 g ai/ha, postemergence, read-out: Plant response rating (0 to 100), Nutsedge, Yellow) of 15% and a pest or weed control at 31 g/ha (yellow nutsedge; Postemergence, 31 g ai/ha, scale 0 to 100 (0 no effect, 100 complete control), 13 to 15 days, read-out: Plant response rating, Nutsedge, Yellow) of 5%. It also gave a pest or weed control at 62 g/ha (yellow nutsedge; Postemergence, 62 g ai/ha, scale 0 to 100 (0 no effect, 100 complete control), read-out: Plant response rating, Nutsedge, Yellow) of 5%, a pest or weed control at 125 g/ha (lambsquarters; 125 g ai/ha, postemergence, read-out: Plant response rating (0 to 100), Lambsquarters) of 98% and a pest or weed control at 250 g/ha (lambsquarters; 250 g ai/ha, postemergence, read-out: Plant response rating (0 to 100), Lambsquarters) of 98%. It also gave a pest or weed control at 31 g/ha (lambsquarters; Postemergence, 31 g ai/ha, scale 0 to 100 (0 no effect, 100 complete control), 13 to 15 days, read-out: Plant response rating, Lambsquarters) of 80%, a pest or weed control at 62 g/ha (lambsquarters; Postemergence, 62 g ai/ha, scale 0 to 100 (0 no effect, 100 complete control), read-out: Plant response rating, Lambsquarters) of 95% and a pest or weed control at 125 g/ha (morningglory; 125 g ai/ha, postemergence, read-out: Plant response rating (0 to 100), Morningglory) of 60%. It also gave a pest or weed control at 250 g/ha (morningglory; 250 g ai/ha, postemergence, read-out: Plant response rating (0 to 100), Morningglory) of 90%, a pest or weed control at 31 g/ha (morningglory; Postemergence, 31 g ai/ha, scale 0 to 100 (0 no effect, 100 complete control), 13 to 15 days, read-out: Plant response rating, Morningglory) of 40% and a pest or weed control at 62 g/ha (morningglory; Postemergence, 62 g ai/ha, scale 0 to 100 (0 no effect, 100 complete control), read-out: Plant response rating, Morningglory) of 60%. It also gave a pest or weed control at 250 g/ha (sedge, umbrella) of 50%, a pest or weed control at 125 g/ha (galium; 125 g ai/ha, postemergence, read-out: Plant response rating (0 to 100), Galium) of 80% and a pest or weed control at 250 g/ha (galium; 250 g ai/ha, postemergence, read-out: Plant response rating (0 to 100), Galium) of 95%. It also gave a pest or weed control at 31 g/ha (galium; Postemergence, 31 g ai/ha, scale 0 to 100 (0 no effect, 100 complete control), 13 to 15 days, read-out: Plant response rating, Galium) of 55%, a pest or weed control at 62 g/ha (galium; Postemergence, 62 g ai/ha, scale 0 to 100 (0 no effect, 100 complete control), read-out: Plant response rating, Galium) of 70% and a pest or weed control at 250 g/ha (chickweed; 250 g ai/ha, postemergence, read-out: Plant response rating (0 to 100), Chickweed) of 45%. It also gave a pest or weed control at 31 g/ha (chickweed; Postemergence, 31 g ai/ha, scale 0 to 100 (0 no effect, 100 complete control), 13 to 15 days, read-out: Plant response rating, Chickweed) of 5%, a pest or weed control at 62 g/ha (chickweed; Postemergence, 62 g ai/ha, scale 0 to 100 (0 no effect, 100 complete control), read-out: Plant response rating, Chickweed) of 15% and a pest or weed control at 125 g/ha (barnyardgrass [1]; [3]) of 10%. It also gave a pest or weed control at 500 g/ha (barnyardgrass [1]; [4]) of 80%, a pest or weed control at 250 g/ha (Heteranthera limosa) of 50% and a plant injury at 125 g/ha (wheat, winter; 125 g ai/ha, postemergence, read-out: Plant response rating (0 to 100), Wheat) of 10%. The plant injury at 250 g/ha (wheat, winter; 250 g ai/ha, postemergence, read-out: Plant response rating (0 to 100), Wheat) was 40%, the plant injury at 31 g/ha (wheat, winter; Postemergence, 31 g ai/ha, scale 0 to 100 (0 no effect, 100 complete control), 13 to 15 days, read-out: Plant response rating, Wheat) was 0% and the plant injury at 62 g/ha (wheat, winter; Postemergence, 62 g ai/ha, scale 0 to 100 (0 no effect, 100 complete control), read-out: Plant response rating, Wheat) was 5%. For the same compound, the pest or weed control at 125 g/ha (giant foxtail; [3]) was 90%, the pest or weed control at 500 g/ha (giant foxtail; [4]) was 100% and the pest or weed control at 250 g/ha (barnyardgrass [2]) was 0%. For the same compound, the plant injury at 250 g/ha (rice) was 10%.

Reference: patent publication US9695155B2, “Herbicidal substituted pyrimidinyloxy benzene compounds” (E. I. DU PONT DE NEMOURS AND COMPANY, priority 2013, dated 2017)
